From patent US20120270860A1, “METHODS FOR TREATING OR PREVENTING ALCOHOL-RELATED DISORDERS OR CRAVING-RELATED DISORDERS” (priority 2011, published 2012)

Columns and labels:
[1] = Case report: sexual cravings and hypersexual behaviors; type: in vivo, human; conditions: for hypersexual symptoms: naltrexone and topiramate before N-acetylcysteine
Description: They had sexual arousal even at age five to six years old. They started to masturbate several years later. Pretty soon masturbation became compulsive daily and multiple times a day. By then they had more access to pornography and internet. They would spend hours and hours on it. Their personal life was devastated. They had been in 12 step program called “Sex Addicts Anonymous” for the past 10 years in one of the largest cities in the US. Problem would repeatedly haunt them. Although they were given various antidepressants by doctors their condition had never stopped. They were treated with naltrexone and topiramate. […] Their hypersexual cravings and symptoms were gone. Currently, they are happily married and doing well at work. They are no longer taking naltrexone or topiramate. They are taking N-acetylcysteine only on an as needed basis. We have found same principles in voyeurism, exhibitionism and other sexual deviations. These patients often end up in jail yet they can't help themselves because of uncontrollable cravings.

[2] = system: alcohol-dependent individuals; experiment: Alcohol craving by Penn Alcohol Craving Scale (PACS) during the trial; type: in vivo, human
Method: (§1) Alcohol-dependent individuals were recruited for participation in a randomized, double-blind, placebo-controlled trial for treating alcohol dependence. To evaluate the safety and efficacy of N-acetylcysteine, 2 groups (N-acetylcysteine 3600 mg/day and placebo) were compared. The total study duration was 9 weeks which included a 1-week screening period and an 8-week randomized study drug treatment period. Subjects were randomized to one of two groups (Table 1) and were evaluated weekly.
(§2) Of 46 subjects, 44 subjects who took at least one study medication were included in analysis. Data analyses were conducted on an intention-to-treat sample using the linear mixed effects model introduced by Laird and Ware (Laird, N. M. & J. H. Ware. 1982. “Random-Effects Models for Longitudinal Data.” Biometrics 38:963-974). Outcome variables were measured over nine consecutive weeks. The covariates were Alcoholics Anonymous attendance and baseline alcohol craving. All the P-values reported are 2-tailed. Significance level was set at p<0.05.
During the trial described in Example 1, alcohol craving was measured weekly by the Penn Alcohol Craving Scale (PACS)(Flannery B. A., et al., Psychometric properties of the Penn Alcohol Craving Scale. Alcohol, Clin. Exp. Res. 1999, 23(8), 1289-95). The PACS is a 5-item self-rated scale designed to assess alcohol craving severity (frequency, intensity, duration, resistance, and overall craving) during the preceding 1 week. Each item has a score range of 0-6 (maximum total craving score=30).

[3] = system: patients with alcohol dependence; experiment: Case reports: alcohol consumption and alcohol-related symptoms; type: in vivo, human; design: AST / ALT: unit not given here
[4] = system: alcohol-dependent individuals; experiment: Quality of Life Enjoyment and Satisfaction Questionnaire (Q-LES-Q) during the trial; type: in vivo, human; design: key to Q-LES-Q: 16-item Q-LES-Q, 5-point scale; higher = better health status
Method: as §1, §2
The effect of N-acetylcysteine on quality of life was measured weekly during the trial described in Example 1. The quality of life was measured by the Quality of Life Enjoyment and Satisfaction Questionnaire (Q-LES-Q).
The short form of the Q-LES-Q is a 16-item self-rated scale designed to assess quality of life, differences in the degree of enjoyment and satisfaction among groups of subjects, as well as changes over time in a single subject (Endicott J., et al., Quality of Life Enjoyment and Satisfaction Questionnaire: a new measure, Psychopharmacol. Bull., 1993, 29(2), 321-326). It is a 5-point scale, with higher scores indicating better health status. The Q-LES-Q SF has been used extensively in drug treatment trials in psychiatry and addictions and has shown good reliability and validity (Endicott J., et al., Pediatric Quality of Life Enjoyment and Satisfaction Questionnaire (PQ-LES-Q): reliability and validity. J. Am. Acad. Child Adolesc. Psychiatry, 2006, 45(4), 401-7). It assesses the following areas: physical health, mood, work, household activities, social relationships, family relationships, leisure time activities, ability to function in daily life, sexual drive, interest and/or performance, economic status, living/housing situation, ability to get around physically, ability to do work or hobbies, and overall sense of well being.

[5] = system: cysteine/glutamate exchange; conditions: preclinical studies; cited from earlier work
[6] = Case report: shopping cravings and compulsive shopping; type: in vivo, human; conditions: person, 2400-3600 mg/day, within two weeks
Method: They have had compulsive shopping behaviors for the past 20 years. They have been under severe financial stress because of their spending habits and unemployment. They had other addictive behaviors such as drinking, hoarding and overeating. Earlier, they were married, had stable job but lost everything. Various medicines such as antipsychotics and antidepressants were ineffective. On the third visit they were given N-acetylcysteine and was advised to take 2400-3600 mg/day.

[7] = Liver function tests (plasma AST, ALT, GGT) during the trial; type: in vivo, human; design: AST / ALT / GGT: unit not given here; conditions: for ALT / AST / GGT: plasma
Method: as §1
The effect of N-acetylcysteine on liver functions was measured during the trial described in Example 1. Liver functions were assessed by measuring changes in plasma aspartate aminotransferase (AST), alanine aminotransferase (ALT) and γ-glutamyl transferase (GGT) levels three times during the study (week 0, week 5 and week 9).

[8] = system: cocaine-dependent patients; conditions: cited from earlier work
[9] = Case reports: food cravings and compulsive overeating; type: in vivo, human
[10] = system: alcohol-dependent individuals; experiment: Alcohol craving by Obsessive Compulsive Drinking Scale (OCDS) during the trial; type: in vivo, human; design: key to OCDS: OCDS total score, 14 items scored 0-4, max 56
Method: as §1, §2
Alcohol craving was also measured weekly by the Obsessive Compulsive Drinking Scale (OCDS) (Anton R. F., et al., The obsessive compulsive drinking scale: A new method of assessing outcome in alcoholism treatment studies. Arch. Gen. Psychiatry. 1996, 53(3), 225-231; Anton R. F., et al., The Obsessive Compulsive Drinking Scale: a self-rated instrument for the quantification of thoughts about alcohol and drinking behavior, Alcohol Clin. Exp. Res., 1995, 19(1), 92-99). The OCDS is a 14-item self-rated reliable scale designed to assess obsessive and compulsive aspects of alcoholism. Each item has a score range of 0-4 (maximum total score=56). Studies of factor analysis have reported that the OCDS loads to three or four factors (OCDS: P<0.05) (Roberts. J. S., et al., Factor structure and predictive validity of the Obsessive Compulsive Drinking Scale, Alcohol Clin. Exp. Res., 1999, 23(9), 1484-1491; Bohn, M. J., et al., Psychometric properties and validity of the obsessive-compulsive drinking scale, Alcohol Clin. Exp. Res., 1996, 20(5), 817-23; Kranzler, H. R., et al., Validity of the Obsessive Compulsive Drinking Scale (OCDS): does craving predict drinking behavior?, Alcohol Clin. Exp. Res. 1999, 23(1), 108-14).

[11] = in vivo; cited from earlier work
[12] = in vivo; cited from earlier work; remark: listed apart in the source
[13] = system: alcohol-dependent individuals; experiment: Randomized, double-blind, placebo-controlled trial for treating alcohol dependence: safety; type: in vivo, human; conditions: N-acetylcysteine up to 3600 mg/day, 8-week treatment
Method: as §1, §2

CC1(C)O[C@@H]2[C@@H](CO[C@@]3(COS(N)(=O)=O)OC(C)(C)O[C@@H]23)O1 [topiramate]
hypersexual symptoms ([1]; person): only partially

CC(=O)N[C@@H](CS)C(=O)O [N-acetylcysteine]
PACS ([2]; Week 1): 18.1429
PACS ([2]; Week 2): 15.1500
PACS ([2]; Week 3): 14.0000
PACS ([2]; Week 4): 11.9474
PACS ([2]; Week 5): 11.7778
PACS ([2]; Week 6): 9.3529
PACS ([2]; Week 7): 8.3333
PACS ([2]; Week 8): 7.2667
PACS ([2]; Week 9): 7.2000
alcohol craving by PACS compared to placebo ([2]; during the trial, p=0.041): decreased alcohol craving
effect in voyeurism, exhibitionism and other sexual deviations ([1]; patients with uncontrollable cravings): works dramatically
hypersexual cravings and symptoms ([1]; person, 2400-3600 mg/day added to naltrexone and topiramate): ameliorated dramatically
alcohol use ([3]; Case 1, after taking 900 mg): able to stop drinking alcohol
alcohol craving ([3]; Case 1, on 3600 mg): substantial reduction in their craving
AST ([3]; Case 2, from 41, in two months while taking N-acetylcysteine): 20
ALT ([3]; Case 2, from 51, in two months while taking N-acetylcysteine): 18
GGT ([3]; Case 2, from 1420, in two months while taking N-acetylcysteine): 327
alcohol use ([3]; Case 2, soon after start): able to abstain from alcohol
alcohol use ([3]; Case 3, at 3600 mg/day): able to stop drinking alcohol completely
alcohol use ([3]; Case 4, 900 mg, before 12-24 beers/day): 6 drinks/day
alcohol use ([3]; Case 4, several weeks later, 2400-3600 mg): able to abstain from alcohol
drinking consumption ([3]; Case 5, 3600 mg, before 6-12 drinks of vodka per day): reduced their drinking significantly
drinking consumption ([3]; Case 5, at 900-2700 mg/day): about the same
alcohol consumption and other alcohol-related symptoms ([3]; numerous test subjects): reduced alcohol consumption and other alcohol-related symptoms
Q-LES-Q ([4]; Week 1): 50.4000
Q-LES-Q ([4]; Week 2): 51.6390
Q-LES-Q ([4]; Week 3): 53.8772
Q-LES-Q ([4]; Week 4): 54.1789
Q-LES-Q ([4]; Week 5): 57.7852
Q-LES-Q ([4]; Week 6): 57.5529
Q-LES-Q ([4]; Week 7): 58.1422
Q-LES-Q ([4]; Week 8): 57.8000
Q-LES-Q ([4]; Week 9): 58.7244
quality of life by Q-LES-Q compared to placebo ([4]; during the trial, p=0.017): improved the quality of life
cocaine-primed reinstatement [5]: inhibited
heroin-induced reinstatement [5]: inhibited
shopping cravings and behaviors [6]: stopped dramatically
liver functions (AST, ALT, GGT liver function tests) ([7]; 8-week trial): improved liver functions
ALT ([7]; Week 0): 36.67
AST ([7]; Week 0): 40.89
GGT ([7]; Week 0): 193.00
ALT ([7]; Week 5): 33.06
AST ([7]; Week 5): 30.28
GGT ([7]; Week 5): 139.06
ALT ([7]; Week 9): 29.13
AST ([7]; Week 9): 26.13
GGT ([7]; Week 9): 92.93
cocaine use and craving ([8]; double-blind placebo-controlled crossover trial): reduced cocaine use and craving
safety and tolerability ([8]; human, in vivo): safe and well tolerated
cocaine use ([8]; open-label clinical study of cocaine-dependent patients): significantly reduced cocaine use
weight ([9]; Case 1, from 239 lbs, in 5 weeks, 2700-3600 mg per day): 225 lbs
weight ([9]; Case 1, two months later, 3600 mg): 224 lbs
weight ([9]; Case 2, from 295 lbs, in one month): 286 lbs
time for food craving to subside after taking ([9]; Case 3, 1200 mg): ≤ 15 min
weight lost ([9]; Case 3, start 220 lbs, two weeks, 1200 mg three times a day): 6 lbs
food cravings and compulsive overeating ([9]; numerous test subjects): reduced food cravings and compulsive overeating
OCDS ([10]; Week 1): 29.0000
OCDS ([10]; Week 2): 24.9000
OCDS ([10]; Week 3): 21.6316
OCDS ([10]; Week 4): 20.3684
OCDS ([10]; Week 5): 18.5556
OCDS ([10]; Week 6): 16.0000
OCDS ([10]; Week 7): 13.5333
OCDS ([10]; Week 8): 13.4667
OCDS ([10]; Week 9): 13.8000
alcohol craving by OCDS compared to placebo ([10]; during the trial, p=0.042): decreased alcohol craving
treatment of pathological gambling [11]: showed the efficacy
half-life [12]: short half-life
serious adverse effects [13]: no serious adverse effects
tolerability [13]: well tolerated

O=C1CC[C@@]2(O)[C@H]3Cc4ccc(O)c5c4[C@@]2(CCN3CC2CC2)[C@H]1O5 [naltrexone]
hypersexual symptoms ([1]; person): only partially
